In paper PMC9867442, “Indole Derivatives Bearing Imidazole, Benzothiazole-2-Thione or Benzoxazole-2-Thione Moieties—Synthesis, Structure and Evaluation of Their Cytoprotective, Antioxidant, Antibacterial and Fungicidal Activities” (Molecules, 2023):

tested on: Poria placenta (Pp); assay: Antifungal agar-plate method; assay type: cell-based; conditions: concentration 0.0001%, read-out: Antifungal activity (inhibition of mycelial growth)
Protocol: (§1) Fungal strains: Coriolus versicolor (Cv), Poria placenta (Pp), Coniophora puteana (Cp) and Gloeophyllum trabeum (Gt) were used as a test organism for the experimental determination of the antifungal activity of 1–11. The fungus were obtained from the collection of the Department of Wood Chemical Technology, Faculty of Forestry and Wood Technology, Poznań, University of Life Sciences, Poland. The fungal growth rates were measured in 90 mm-diameter plastic dishes using the agar-plate method, described by Ważny and Thorton. Five concentrations of gramine and its derivatives in the range of 0.1% to 0.00001% were studied. The compound was applied on the agar (2% agar and 5% malt-extract) prepared on the Petri dish and previously autoclaved. The combination of the compound and fungus was repeated three times. Given sample was centrally inoculated with a 5 mm diameter disc taken from the submargin of 5-day-old malt agar plates. The plates were incubated in darkness at 21 ± 2 °C and 70 ± 5% relative air humidity. The growth duration was determined by the total coverage of the reference plate. The radius of the area covered by the fungus compared with the reference agar plate was employed to calculate the effective doses, ED50, of preservative concentrations retarding the fungal growth rate by 50%.

Going from `CCc1nc(C)cn1Cc1c[nH]c2ccccc12` [Compound 6, 3-((2-ethyl-4-methyl-1H-imidazol-1-yl)methyl)-1H-indole] to `Clc1ncn(Cc2c[nH]c3ccccc23)c1Cl` [Compound 7, 3-((4,5-dichloro-1H-imidazol-1-yl)methyl)-1H-indole], the inhibition of growth at 0.0001 % falls from 4% to 0%.

same assay, conditions: concentration 0.001%, read-out: Antifungal activity (inhibition of mycelial growth)

Compared with `CCc1nc(C)cn1Cc1c[nH]c2ccccc12` [Compound 6, 3-((2-ethyl-4-methyl-1H-imidazol-1-yl)methyl)-1H-indole], `Clc1ncn(Cc2c[nH]c3ccccc23)c1Cl` [Compound 7, 3-((4,5-dichloro-1H-imidazol-1-yl)methyl)-1H-indole] is higher in inhibition of growth at 0.001 %: 0% for the first, 35% for the second.

same assay, conditions: concentration 0.01%, read-out: Antifungal activity (inhibition of mycelial growth)

First: CCc1nc(C)cn1Cc1c[nH]c2ccccc12 [Compound 6, 3-((2-ethyl-4-methyl-1H-imidazol-1-yl)methyl)-1H-indole]
Second: Clc1ncn(Cc2c[nH]c3ccccc23)c1Cl [Compound 7, 3-((4,5-dichloro-1H-imidazol-1-yl)methyl)-1H-indole]
The inhibition of growth at 0.01 % of the first is lower: 41% for the first, 78% for the second.

same assay, conditions: concentration 0.1%, read-out: Antifungal activity (inhibition of mycelial growth)

Compound `CCc1nc(C)cn1Cc1c[nH]c2ccccc12` [Compound 6, 3-((2-ethyl-4-methyl-1H-imidazol-1-yl)methyl)-1H-indole] has an inhibition of growth at 0.1 % of 100%.

tested on: Coniophora puteana (Cp); assay: Antifungal agar-plate method; assay type: cell-based; conditions: Coniophora puteana, concentration 0.0001%, read-out: Antifungal activity (inhibition of mycelial growth)
Protocol: as §1

Compared with `CCc1nc(C)cn1Cc1c[nH]c2ccccc12` [Compound 6, 3-((2-ethyl-4-methyl-1H-imidazol-1-yl)methyl)-1H-indole], `Clc1ncn(Cc2c[nH]c3ccccc23)c1Cl` [Compound 7, 3-((4,5-dichloro-1H-imidazol-1-yl)methyl)-1H-indole] is lower in inhibition of growth at 0.0001 %: 40% for the first, 0% for the second.

same assay, conditions: Coniophora puteana, concentration 0.001%, read-out: Antifungal activity (inhibition of mycelial growth)

First: CCc1nc(C)cn1Cc1c[nH]c2ccccc12 [Compound 6, 3-((2-ethyl-4-methyl-1H-imidazol-1-yl)methyl)-1H-indole]
Second: Clc1ncn(Cc2c[nH]c3ccccc23)c1Cl [Compound 7, 3-((4,5-dichloro-1H-imidazol-1-yl)methyl)-1H-indole]
The inhibition of growth at 0.001 % of the first is lower: 37% for the first, 46% for the second.

same assay, conditions: Coniophora puteana, concentration 0.01%, read-out: Antifungal activity (inhibition of mycelial growth)

Compared with `CCc1nc(C)cn1Cc1c[nH]c2ccccc12` [Compound 6, 3-((2-ethyl-4-methyl-1H-imidazol-1-yl)methyl)-1H-indole], `Clc1ncn(Cc2c[nH]c3ccccc23)c1Cl` [Compound 7, 3-((4,5-dichloro-1H-imidazol-1-yl)methyl)-1H-indole] is higher in inhibition of growth at 0.01 %: 49% for the first, 74% for the second.

same assay, conditions: Coniophora puteana, concentration 0.1%, read-out: Antifungal activity (inhibition of mycelial growth)

`CCc1nc(C)cn1Cc1c[nH]c2ccccc12` [Compound 6, 3-((2-ethyl-4-methyl-1H-imidazol-1-yl)methyl)-1H-indole] showed an inhibition of growth at 0.1 % of 100%.

tested on: Gloeophyllum trabeum (Gt); assay: Antifungal agar-plate method; assay type: cell-based; conditions: Gloeophyllum trabeum, concentration 0.0001%, read-out: Antifungal activity (inhibition of mycelial growth)
Protocol: as §1

First: CCc1nc(C)cn1Cc1c[nH]c2ccccc12 [Compound 6, 3-((2-ethyl-4-methyl-1H-imidazol-1-yl)methyl)-1H-indole]
Second: Clc1ncn(Cc2c[nH]c3ccccc23)c1Cl [Compound 7, 3-((4,5-dichloro-1H-imidazol-1-yl)methyl)-1H-indole]
The inhibition of growth at 0.0001 % of the first is lower: 13% for the first, 28% for the second.

same assay, conditions: Gloeophyllum trabeum, concentration 0.001%, read-out: Antifungal activity (inhibition of mycelial growth)

Going from `CCc1nc(C)cn1Cc1c[nH]c2ccccc12` [Compound 6, 3-((2-ethyl-4-methyl-1H-imidazol-1-yl)methyl)-1H-indole] to `Clc1ncn(Cc2c[nH]c3ccccc23)c1Cl` [Compound 7, 3-((4,5-dichloro-1H-imidazol-1-yl)methyl)-1H-indole], the inhibition of growth at 0.001 % rises from 9% to 51%.

same assay, conditions: Gloeophyllum trabeum, concentration 0.01%, read-out: Antifungal activity (inhibition of mycelial growth)

Compared with `CCc1nc(C)cn1Cc1c[nH]c2ccccc12` [Compound 6, 3-((2-ethyl-4-methyl-1H-imidazol-1-yl)methyl)-1H-indole], `Clc1ncn(Cc2c[nH]c3ccccc23)c1Cl` [Compound 7, 3-((4,5-dichloro-1H-imidazol-1-yl)methyl)-1H-indole] is higher in inhibition of growth at 0.01 %: 27% for the first, 91% for the second.

same assay, conditions: Gloeophyllum trabeum, concentration 0.1%, read-out: Antifungal activity (inhibition of mycelial growth)

`CCc1nc(C)cn1Cc1c[nH]c2ccccc12` [Compound 6, 3-((2-ethyl-4-methyl-1H-imidazol-1-yl)methyl)-1H-indole] and `Clc1ncn(Cc2c[nH]c3ccccc23)c1Cl` [Compound 7, 3-((4,5-dichloro-1H-imidazol-1-yl)methyl)-1H-indole] cannot be ordered by inhibition of growth at 0.1 %: 100% for the first, greater than 90% for the second.

tested on: Coriolus versicolor (Cv); assay: Antifungal agar-plate method; assay type: cell-based; conditions: Trametes versicolor, concentration 0.0001%, read-out: Antifungal activity (inhibition of mycelial growth)
Protocol: as §1

Going from `CCc1nc(C)cn1Cc1c[nH]c2ccccc12` [Compound 6, 3-((2-ethyl-4-methyl-1H-imidazol-1-yl)methyl)-1H-indole] to `Clc1ncn(Cc2c[nH]c3ccccc23)c1Cl` [Compound 7, 3-((4,5-dichloro-1H-imidazol-1-yl)methyl)-1H-indole], the inhibition of growth at 0.0001 % falls from 19% to 0%.

same assay, conditions: Trametes versicolor, concentration 0.001%, read-out: Antifungal activity (inhibition of mycelial growth)

Compared with `CCc1nc(C)cn1Cc1c[nH]c2ccccc12` [Compound 6, 3-((2-ethyl-4-methyl-1H-imidazol-1-yl)methyl)-1H-indole], `Clc1ncn(Cc2c[nH]c3ccccc23)c1Cl` [Compound 7, 3-((4,5-dichloro-1H-imidazol-1-yl)methyl)-1H-indole] is higher in inhibition of growth at 0.001 %: 19% for the first, 23% for the second.

same assay, conditions: Trametes versicolor, concentration 0.01%, read-out: Antifungal activity (inhibition of mycelial growth)

First: CCc1nc(C)cn1Cc1c[nH]c2ccccc12 [Compound 6, 3-((2-ethyl-4-methyl-1H-imidazol-1-yl)methyl)-1H-indole]
Second: Clc1ncn(Cc2c[nH]c3ccccc23)c1Cl [Compound 7, 3-((4,5-dichloro-1H-imidazol-1-yl)methyl)-1H-indole]
The inhibition of growth at 0.01 % of the first is lower: 44% for the first, 96% for the second.

same assay, conditions: Trametes versicolor, concentration 0.1%, read-out: Antifungal activity (inhibition of mycelial growth)

`CCc1nc(C)cn1Cc1c[nH]c2ccccc12` [Compound 6, 3-((2-ethyl-4-methyl-1H-imidazol-1-yl)methyl)-1H-indole] and `Clc1ncn(Cc2c[nH]c3ccccc23)c1Cl` [Compound 7, 3-((4,5-dichloro-1H-imidazol-1-yl)methyl)-1H-indole] cannot be ordered by inhibition of growth at 0.1 %: 100% for the first, greater than 90% for the second.

tested on: not given; assay: not given; conditions: not given

For `CCc1nc(C)cn1Cc1c[nH]c2ccccc12` [Compound 6, 3-((2-ethyl-4-methyl-1H-imidazol-1-yl)methyl)-1H-indole], the melting point was 186 to 189 °C.

tested on: not listed separately; assay: Ferrous ions (Fe2+) chelating activity (ferrozine); conditions: 0.1 mg/mL, 10 min, room temperature
Protocol: Ferrous ions (Fe^2+) chelating activity was evaluated by inhibition of the formation of Fe^2+-ferrozine complex after incubation of the compounds tested with Fe^2+. The Fe^2+-chelating ability of compounds tested was determined by the absorbance of the ferrous ion-ferrozine complex at 562 nm. In brief, 0.1 mg/mL concentration of the compounds tested in 0.2 mL ethyl alcohol were added to a solution of 0.6 mM FeCl2 (0.05 mL). EDTA (ethylenediaminetetraacetic acid) was used as the standard EDTA chelating agent. The reaction was started by the addition of 5 mM ferrozine (0.05 mL) in ethyl alcohol and shaken vigorously immediately. The samples were stored for 10 min at room temperature (~22 °C). Following incubation, the absorbance (Abs) of the solutions was measured at 562 nm in a spectrophotometer. The percentage of inhibition of ferrozine—Fe^2+ complex formation was calculated using the equation: Fe^2+ chelating effect (%) = [1 − (Abs1/Abs0)] × 100% where Abs0 is the absorbance of the sample without the tested compound and Abs1 is the absorbance in the presence of the compound tested. Each sample was made in triplicate, and three independent experiments were performed.

In the case of `Clc1ncn(Cc2c[nH]c3ccccc23)c1Cl` [Compound 7, 3-((4,5-dichloro-1H-imidazol-1-yl)methyl)-1H-indole], the Chelating activity is reported as “no chelating activity”.

tested on: Escherichia coli; assay: Antibacterial well-diffusion method; assay type: cell-based; conditions: 0.1 mL of compound in DMSO, 48 h, 37 °C
Protocol: (§2) The antimicrobial properties of compounds were determined against selected bacteria: Micrococcus luteus, Bacillus subtilis, Escherichia coli and Pseudomonas fluorescens which came from the collection of Pure Cultures of the Facility of Microbiology of the Department of Soil Science and Microbiology of the Poznan University of Life Sciences. The well-diffusion method was used to evaluate the antimicrobial properties of compounds. 6 mL each of liquidized broth medium was poured into sterile Petri dishes and allowed to solidify. After which, two sterile glass rings with a diameter of 0.5 cm were placed on the surface of each plate. Then 20 mL each of liquid broth medium containing suspensions of the tested bacterial strains at a density of 10^7 cells/cm3, obtained from 48-h cultures on broth […], was introduced. After the medium solidified, the glass rings were removed with a pencil, obtaining two wells on each plate. 0.1 mL of compound dissolved in pure dimethyl sulphoxide was introduced into one well, and 0.1 mL of pure dimethyl sulphoxide was introduced into the other well, which was as a control. Each compound was tested in four replicates. The plates were incubated for 48 h in a thermostat at 27 °C for M. luteus, B. subtilis and P. fluorescens cultures, and the E. coli culture at 37 °C. At the end of the incubation, the diameters of growth inhibition of the tested strains were measured using calipers.

First: CCc1nc(C)cn1Cc1c[nH]c2ccccc12 [Compound 6, 3-((2-ethyl-4-methyl-1H-imidazol-1-yl)methyl)-1H-indole]
Second: Clc1ncn(Cc2c[nH]c3ccccc23)c1Cl [Compound 7, 3-((4,5-dichloro-1H-imidazol-1-yl)methyl)-1H-indole]
The “Zone of Growth Inhibition” value of the first is lower: 3.5 mm for the first, 4.3 mm for the second.

tested on: Bacillus subtilis; assay: Antibacterial well-diffusion method; assay type: cell-based; conditions: 0.1 mL of compound in DMSO, 48 h, 27 °C
Protocol: as §2

First: CCc1nc(C)cn1Cc1c[nH]c2ccccc12 [Compound 6, 3-((2-ethyl-4-methyl-1H-imidazol-1-yl)methyl)-1H-indole]
Second: Clc1ncn(Cc2c[nH]c3ccccc23)c1Cl [Compound 7, 3-((4,5-dichloro-1H-imidazol-1-yl)methyl)-1H-indole]
The “Zone of Growth Inhibition” value of the first is lower: 2.4 mm for the first, 8.7 mm for the second.

tested on: Pseudomonas fluorescens; assay: Antibacterial well-diffusion method; assay type: cell-based; conditions: 0.1 mL of compound in DMSO, 48 h, 27 °C
Protocol: as §2

First: CCc1nc(C)cn1Cc1c[nH]c2ccccc12 [Compound 6, 3-((2-ethyl-4-methyl-1H-imidazol-1-yl)methyl)-1H-indole]
Second: Clc1ncn(Cc2c[nH]c3ccccc23)c1Cl [Compound 7, 3-((4,5-dichloro-1H-imidazol-1-yl)methyl)-1H-indole]
The “Zone of Growth Inhibition” value of the first is higher: 2.3 mm for the first, 0 mm for the second.

tested on: Micrococcus luteus; assay: Antibacterial well-diffusion method; assay type: cell-based; conditions: Micrococus luteus, 0.1 mL of compound in DMSO, 48 h, 27 °C
Protocol: as §2

Going from `CCc1nc(C)cn1Cc1c[nH]c2ccccc12` [Compound 6, 3-((2-ethyl-4-methyl-1H-imidazol-1-yl)methyl)-1H-indole] to `Clc1ncn(Cc2c[nH]c3ccccc23)c1Cl` [Compound 7, 3-((4,5-dichloro-1H-imidazol-1-yl)methyl)-1H-indole], the “Zone of Growth Inhibition” value falls from 6 mm to 5 mm.
